Data published in ChEMBL document CHEMBL1201862, “PubChem BioAssay data set” (2004).
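Step 1: Grow cells in 96-well plates. Step 2: Expose to compound for 48 hours at 5 concentrations. Step 3: Interpolate endpoints linearly; if unreached, use highest concentration. At the GI50, growth is halved.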 Activity calls are given as the source filed them. No stated cut-off is given here; in the data, active = GI50 up to about 1.1 µM and inactive = higher.

Key:
Test in all cases: NCI tumour cell line growth inhibition, 48 h
UACC-62 = test system: UACC-62
OVCAR-5 = test system: OVCAR-5
SK-OV-3 = test system: SK-OV-3
M14 = test system: M14
TK-10 = test system: TK-10
ACHN = test system: ACHN
IGROV-1 = test system: IGROV-1
UACC-257 = test system: UACC-257
HOP-62 = test system: HOP-62
OVCAR-8 = test system: OVCAR-8
NCI-H460 = test system: NCI-H460
SR = test system: SR
KM12 = test system: KM12
SF-295 = test system: SF-295
SF-268 = test system: SF-268
SNB-19 = test system: SNB-19
Malme-3M = test system: Malme-3M
EKVX = test system: EKVX
HCT-116 = test system: HCT-116
UO-31 = test system: UO-31

Measured: GI50

COc1cc(/C=C/C(=O)OCC23CC[C@@]4(C(=O)O)CCC(C)[C@H](C)C4C2=CCC2[C@@]4(C)CC[C@H](O)C(C)(C)C4CC[C@]23C)ccc1O (stereo not given in full)
inactive: UACC-62 19.6 µM | OVCAR-5 21.7 µM | SK-OV-3 29 µM | M14 23.2 µM | TK-10 2.97 µM | ACHN 3.05 µM | IGROV-1 14.5 µM | UACC-257 17.7 µM | HOP-62 13.4 µM | OVCAR-8 15.9 µM | NCI-H460 11.4 µM | SR 19.4 µM | KM12 29.9 µM | SF-295 23.8 µM | SF-268 4.66 µM | SNB-19 31.2 µM | Malme-3M 11.9 µM | EKVX 15.5 µM | HCT-116 17.5 µM

O=C1CC(O)c2cscc21 (stereo not given)
inactive: UACC-62 > 100 µM | OVCAR-5 > 100 µM | SK-OV-3 > 100 µM | TK-10 > 100 µM | ACHN > 100 µM | IGROV-1 > 100 µM | UACC-257 > 100 µM | HOP-62 > 100 µM | OVCAR-8 65.9 µM | NCI-H460 > 100 µM | SR 29.5 µM | KM12 > 100 µM | SF-295 > 100 µM | SF-268 > 100 µM | Malme-3M > 100 µM | EKVX > 100 µM | HCT-116 > 100 µM

COc1cc(C(c2cc(OC)c(OC)c(OC)c2)N2C(=O)CCC2C(=O)O)cc(OC)c1OC (stereo not given)
inactive: UACC-62 > 100 µM | OVCAR-5 > 100 µM | SK-OV-3 > 100 µM | M14 > 100 µM | UO-31 > 100 µM | ACHN > 100 µM | IGROV-1 > 100 µM | UACC-257 > 100 µM | HOP-62 > 100 µM | OVCAR-8 > 100 µM | NCI-H460 > 100 µM | SR > 100 µM | KM12 > 100 µM | SF-295 > 100 µM | SF-268 > 100 µM | SNB-19 > 100 µM | Malme-3M > 100 µM | EKVX > 100 µM | HCT-116 > 100 µM

COc1ccc(C(c2ccccc2)(c2ccc(OC)cc2)N2C(=O)NC3C(CCCCC(=O)NCCCCCCOP(OCCC#N)N(C(C)C)C(C)C)SCC32)cc1 (stereo not given)
inactive: UACC-62 10.9 µM | OVCAR-5 > 10 µM | SK-OV-3 > 10 µM | M14 18.4 µM | UO-31 14.3 µM | TK-10 18 µM | ACHN 16.3 µM | IGROV-1 18.7 µM | UACC-257 19.3 µM | HOP-62 17.6 µM | OVCAR-8 29.2 µM | NCI-H460 16.8 µM | SR 8.07 µM | KM12 16.2 µM | SF-295 17.1 µM | SF-268 15.2 µM | Malme-3M 17.8 µM | EKVX 21.5 µM | HCT-116 12 µM

COc1ccc(C2(C3c4cc(OC)c(OC)cc4CCN3C)SCCCS2)cc1O (stereo not given)
inactive: UACC-62 > 100 µM | OVCAR-5 > 100 µM | SK-OV-3 72.9 µM | M14 > 100 µM | UO-31 > 100 µM | TK-10 > 100 µM | IGROV-1 > 100 µM | UACC-257 > 100 µM | HOP-62 > 100 µM | OVCAR-8 > 100 µM | NCI-H460 > 100 µM | SR 68.1 µM | KM12 71.8 µM | SF-295 71.8 µM | SF-268 > 100 µM | SNB-19 > 100 µM | Malme-3M > 100 µM | EKVX 60 µM | HCT-116 67.9 µM

c1ccc(C(=NCCC2CNc3ccccc32)c2ccccc2)cc1 (stereo not given)
inactive: UACC-62 > 100 µM | OVCAR-5 > 100 µM | SK-OV-3 > 100 µM | M14 > 100 µM | UO-31 > 100 µM | ACHN > 100 µM | IGROV-1 89.3 µM | UACC-257 > 100 µM | HOP-62 > 100 µM | OVCAR-8 > 100 µM | NCI-H460 > 100 µM | SR > 100 µM | KM12 > 100 µM | SF-295 > 100 µM | SNB-19 > 100 µM | Malme-3M > 100 µM | EKVX > 100 µM | HCT-116 > 100 µM

Cn1c(=O)oc2cc(C(=S)N3CCCCC3)ccc21
inactive: UACC-62 > 100 µM | OVCAR-5 > 100 µM | SK-OV-3 > 100 µM | M14 > 100 µM | TK-10 > 100 µM | ACHN > 100 µM | IGROV-1 > 100 µM | UACC-257 > 100 µM | HOP-62 > 100 µM | OVCAR-8 > 100 µM | NCI-H460 > 100 µM | SR 68.4 µM | KM12 > 100 µM | SF-295 > 100 µM | SF-268 > 100 µM | SNB-19 > 100 µM | Malme-3M > 100 µM | EKVX > 100 µM | HCT-116 > 100 µM
